We go through 6 molecules from patent publication US20070218023A1, “Uses of melatonin in skin” (priority 2006, published 2007).

Entries after “also recorded” stand apart in the source; their conditions may differ.

Data set [1] concerns HaCaT keratinocytes. The data set can be described thus: Kinetics of melatonin metabolism in untreated keratinocytes (intracellular levels). The format is in vitro ADME, human. As to conditions: not preincubated with melatonin, no UV; for intracellular level in untreated keratinocytes after 24 hrs: cultivation for 24 hrs. As for the experimental part: (§1) Parallel control dishes were incubated with PBS without melatonin.
(§2) Aliquots ([…]) of samples from the cell suspension and cell-free experiments were separated on an LC-MS QP8000a (Shimadzu, Japan) equipped with diode array and single quadrupole mass-spectrometric detectors. The separation system consisted of a Restec Allure C18 reverse-phase column (150×4.6 mm; 5 μm particle size; and 60 A pore size) with mobile phase consisting of 25% acetonitrile and 0.1% acetic acid. Elution was carried out isocratically at flow rate of 0.75 ml/min and temperature of 40° C. The eluent was routed to the mass-spectrometric electrospray interface (ESI) set in positive mode and using nitrogen as the nebulizing gas. Mass-spectrometry parameters were as follows: nebulizer gas flow rate, 4.5 l/min; electrospray voltage, 4.5 kV; and curved desolvation line (CDL) heater temperature, 250° C. The selected ion monitoring (SIM) mode was used to detect ions with m/z=249 (monohydroxymelatonin); m/z=265 (dihydroxymelatonin and AFMK); m/z=237 (AMK); and m/z=233 (melatonin). System control and data acquisition were performed with the LC-MS workstation Class-8000 software (Shimadzu, Japan).

In data set [2] the test system is HaCaT keratinocytes. The data set can be described thus: Melatonin and metabolites in supernatants and cell lysates of UV-irradiated HaCaT keratinocytes (HPLC, LC-MS). Format: in vitro ADME, human. As for the experimental part:
as §1
(§3) Internal standards for HPLC were dissolved in absolute ethanol. […] AFMK was produced as described previously (48).
(§4) Irradiation experiments were performed with a Biorad UV transluminator 2000 (Bio-RAD Laboratories, Hercules, Calif.), calibrated as described previously (37). Briefly, a scanning double monochromator spectroradiometer (Model OL 754, Optronic Laboratories, Orlando, Fla.) was used to scan emission of wavelengths from 250 to 800 nm at 1 nm increments. The spectroradiometer had been calibrated with an NIST traceable tungsten-halogen spectral irradiance standard (Model 75-10E, Optronic Laboratories, Orlando, Fla.) with a precision current source (Model 65, Optronic Laboratories, Orlando, Fla.). An additional calibration module (Model 752-150, Optronic Laboratories, Orlando, Fla.) measured both photometric gain and wavelength accuracy. Wavelength calibration and gain were established or verified before each experimental use. The UV source emission (shown in FIG. 1) consisted primarily of UVB light (wavelength 280-320 nm; 60%), with minor output in the UVA (320-400 nm) and UVC (120-280 nm) range (˜30% and ˜10%, respectively). Melatonin photoproducts generation was performed after irradiation at the UV doses of 25, 50, 75 or 100 mJ/cm^2, as indicated in the figures.
as §2

Data set [3] can be described thus: UVR irradiation of melatonin solution in a cell-free system (HPLC, LC-MS). The format is physicochemical. As to conditions: melatonin in PBS, UV-doses of 25, 50 and 100 mJ/cm^2. As for the experimental part:
as §1, §3
as §4, with “Melatonin photoproducts generation was performed after irradiation at the UV doses of 25, 50, 75 or 100 mJ/cm^2, as indicated in the figures.” left out
Peak areas increased linearly with UV-doses (FIG. 2). […] Product identity was determined by comparison with known standards of melatonin metabolites. […]

Data set [4] concerns HaCaT keratinocytes. As to conditions: [3H]-labeled melatonin tracer only; cited from earlier work.
Data set [5] concerns HaCaT keratinocytes. Nature of the data set: Mitochondrial membrane potential (ΔΨ) using JC-1, confocal microscopy. The format is cell-based, human. As to conditions: for mitochondrial membrane potential, melatonin alone: melatonin 10−4 M, without UV-exposure. The protocol: Mitochondrial inner membrane potential (ΔΨ) in immortalized HaCaT keratinocytes was measured by using confocal microscopy with 5,5′,6,6′tetrachloro-1,1′,3,3′-tetraethylbenzimidazol-carbocyanine iodide (JC-1) (Molecular Probes, Carlsbad, Calif.) (66). JC-1 selectively enters mitochondria and aggregates when the membrane potential values exceed 80-100 mV, causing a shift in fluorescence from 530 nm (green) to 590 nm (red). For experiments, human HaCaT keratinocytes were seeded in Lab-Tek II 8-well chambered coverglass (Nalge Nunc, Inc., Naperville, Ill.) and grown until 90-100% of confluence. Culture media were removed and cells washed with PBS and then incubated for 30 or 120 min with melatonin at […]. Stock solution of melatonin was dissolved in DMEM and added to the culture media. After incubation, cells were washed twice with PBS and subjected to irradiation with UVB at the dose of 50 mJ/cm^2 or incubated with serum free medium containing 1 mM H2O2 for 1 h. After irradiation cells were incubated in DMEM containing 5% FBS and supplemented with JC-1 (2.5 μg/ml) for 30 min at 37° C. […] Images were acquired from three to six randomly chosen fields for each experimental condition showing nuclear cross-section. Green and red channels were merged and ratio of red to green channel was shown in blue.
Bands of immunoblots were evaluated by measurement of density with Scion Image analysis software (NIH). Density values from two or three experiments were taken for calculation of mean values and standard deviation. For statistical analysis of mitochondrial membrane potential, images showing nuclear cross-section were acquired from three to six randomly chosen fields -or each experimental condition. Ration of red/green emission was calculated using ImageJ software (NIH, Bethesda, […].) and differences were analysed with Student's t-test and were considered significant when p-value was <0.05.

For data set [6], the system named is HaCaT keratinocytes. The note with it: human.
Text: HaCaT keratinocytes were cultivated in Dulbecco's Modified Eagle Medium (DMEM) supplemented with glucose, L-glutamine, pyridoxine hydrochloride (Gibco, Invitrogen Life Technologies Carlsbad, Calif.), 10% fetal bovine serum (Mediatech Inc., Herndon, Va.) and 1% penicillin/streptomycin/amphotericin antibiotic solution (Sigma Chemical Co., St. Louis, Mo.). Cells were trypsinized from culture flasks and seeded in 10 cm petri dishes (Corning Inc., Corning, N.Y.) at a density of 10^6 cells/dish and incubated overnight. The next day, after confluence of 80-90% was reached, cells were washed once with PBS to remove remnants of media, and incubation with melatonin in PBS was performed for 30 min. Parallel control dishes were incubated with PBS without melatonin. After incubation the Petri dishes were irradiated from below with UVR. […]
Cell extracts were briefly sonicated in 50 μl absolute ethanol in a Branson 5200 waterbath at ambient temperature (Branson Ultrasonics Corporation, Danbury, Conn.). […] Column eluate was monitored by Model 2487 UV detector (275 nm) and Model 991 photodiode array detectors and the data stored electronically for subsequent interpretation.
For data set [7], the system named is HaCaT keratinocytes. Nature of the data set: Morphology analysis of keratinocytes after UV irradiation. Format: cell-based, human. The note with it: melatonin 10^−3 M, 50 mJ/cm^2, 24 hours after irradiation. The protocol: Cell media from overnight incubation was removed and replaced with fresh media containing melatonin at the concentration of 10^−3 M, the maximum effective concentration identified in previous studies (45, 46). […] Irradiation of the Petri dishes was performed with UVR from below, and after irradiation PBS was replaced by fresh culture media for 24 or 48 hrs. Paraely, cells were incubated with or without melatonin, but not subjected to irradiation to exclude effects of melatonin alone.
Digital pictures from six to ten randomly chosen fields per Petri dish for each experimental condition were acquired at different time points after UV exposure (0, 24 and 48 hrs) with a NIKON Eclipse TE300 microscope (Melville, N.Y.). At 24 and 48 hrs after UV exposure, pictures of detached cells were first taken, then detached cells were removed and another set of pictures was acquired to assess the degree of confluency of cells which were still attached to the bottom of the culture dish. Pictures were recorded and analyzed with MetaVue software. Then, keratinocytes were harvested from Petri dishes by trypsinization, washed three times with ice-cold PBS and frozen in −80° C. until further processing.

For the molecule `COc1ccc2[nH]c(O)c(CCNC(C)=O)c2c1` [2-hydroxymelatonin], in the data set with HaCaT keratinocytes [1], the “intracellular level in untreated keratinocytes, initial (basal)” value (shortened to “intracellular level … (basal)”) is on record as 7.8 pmoles/1000 cells and the “intracellular level in untreated keratinocytes after 24 hrs” value (“intracellular level … after 24 hrs” below) amounted to 20.4 pmoles/1000 cells.
For the molecule `COc1ccc2[nH]cc(CCNC(C)=O)c2c1O` [4-hydroxymelatonin], the intracellular detection result in the data set with HaCaT keratinocytes [2] (basal conditions and after UVR exposure) was “not detected intracellularly”.
Take `COc1cc2c(CCNC(C)=O)c[nH]c2cc1O` [6-hydroxymelatonin]: in the data set on HaCaT keratinocytes [1], the “intracellular level … (basal)” value is 53.4 pmoles/1000 cells and the “intracellular level … after 24 hrs” value is 16.8 pmoles/1000 cells.
As for `COc1ccc(NC=O)c(C(=O)CCNC(C)=O)c1` [AFMK, N^1-acetyl-N^2-formyl-5-methoxykynuramine], the “relative HPLC peak size of photoproduct” value in data set [3] was “largest peak”. Besides, in the data set with HaCaT keratinocytes [1], the “intracellular level … (basal)” value was found to be 17.4 pmoles/1000 cells and the “intracellular level … after 24 hrs” value amounted to 33.6 pmoles/1000 cells. The “time of highest level in supernatants post UV exposure” value in the data set with HaCaT keratinocytes [2] (HaCaT preincubated with 10−3 M melatonin, UVR) worked out at 40 min. In addition, in the data set with HaCaT keratinocytes [2] (cells not preincubated with melatonin), the “AFMK level in supernatants, irradiated vs nonirradiated” value was about 13 fold. Also, the “AFMK level in supernatants, irradiated vs non-irradiated” value in the data set with HaCaT keratinocytes [2] (melatonin preincubation, 50 mJ/cm^2) is about 100 fold. Moreover, the “AFMK level in cell lysates, irradiated vs nonirradiated” value in the data set with HaCaT keratinocytes [2] (melatonin preincubation, UVR) is “approximately 3.5 fold”. The “AFMK level in native keratinocytes (lysates), UV-stimulated increase” value in the data set with HaCaT keratinocytes [2] (not preincubated with melatonin) is given as 1.9 fold.
As for `COc1ccc(N)c(C(=O)CCNC(C)=O)c1` [AMK, N^1-acetyl-5-methoxykynuramine], in the data set with HaCaT keratinocytes [2], the “detection of AMK after UVR exposure” value is given as “could not be detected”.
As for `COc1ccc2[nH]cc(CCNC(C)=O)c2c1` [melatonin], in data set [3], the “photoproducts generated by UV irradiation of melatonin solution” value is recorded as “generated four compounds”. In addition, in the data set on HaCaT keratinocytes [1], the “intracellular level … (basal)” value is on record as 146.0 pmoles/1000 cells and the “intracellular level … after 24 hrs” value stood at 65.0 pmoles/1000 cells. In addition, in the data set on HaCaT keratinocytes [4], the “melatonin uptake in HaCaT keratinocytes (Nickel and Wohlrab)” value is recorded as 0.097%. For the same molecule, the “UV-induced mitochondrial membrane potential reduction, red/green fluorescence ratio” value with HaCaT keratinocytes [5] (melatonin 10^−3 to 10^−6 M for 30 or 120 min, UVB 50 mJ/cm^2) is reported as “attenuated by melatonin in a dose dependent manner; also recorded: prevented membrane potential reduction”. For the same molecule, in the data set on HaCaT keratinocytes [5] (melatonin 10^−4 M, H2O2 1 mM, 60 minutes), the “H2O2-induced reduction of mitochondrial membrane potential” value is on record as “significantly counteracted”. The “mitochondrial membrane potential, melatonin alone” value in the data set with HaCaT keratinocytes [5] is on record as “no change of mitochondrial membrane potential”. In addition, the “mitochondrial membrane potential, melatonin alone” value in the data set with HaCaT keratinocytes [5] (listed as Melatonin) is “did not influence mitochondrial membrane potential”. Further, the “mitochondrial membrane potential after UVB (JC-1 images)” value in the data set on HaCaT keratinocytes [5] (preincubation with melatonin 10^−4 M, UVB 50 mJ/cm^2) is reported as “preserved mitochondrial membrane potential”. Further, in the data set with HaCaT keratinocytes [6], the intracellular melatonin concentration result was “approximately 10−6 M” and the “uptake of melatonin into the cell, ratio of intra- to extracellular melatonin (% of applied levels)” value stood at 0.125%. In addition, the “melatonin level in supernatants after UV exposure, % of nonirradiated melatonin solution” value in the data set with HaCaT keratinocytes [2] (human) amounted to 99.7%. In addition, the “keratinocyte confluency and empty spaces after UV irradiation” value in the data set with HaCaT keratinocytes [7] was “confluency was higher compared to non-treated control and no empty spaces were seen”.
